Measured values published in the supplement of paper PMC10307832.

Assays:
Assay in all cases: relative viability (nuclei count vs DMSO), 5 days (fraction); higher = more cells survive
[1] = compound: C1=CC=C(C(=C1)C2=CC=C(C=C2)C3=CSC4=C3C(=C(C(=O)N4)C#N)O)O + COc1cccc2cc(-c3nc([C@H]4CC[C@H](C(=O)O)CC4)n4ncnc(N)c34)[nH]c12 [OSI-027] (partner 0.5 µM)
Method in brief: (§1)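 Lung cancer cell lines were pin-tool dosed in 1536-well plates on the day after seeding, with either a lone drug or a fixed anchor-drug dose plus five library-drug doses (not always all listed) in √10 steps. Nuclei were counted on 4× images after 5 days. Relative viability is the ratio of treated-well to vehicle-well nuclei counts, with each value a median of duplicate plates.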

[2] = compound: C1=CC=C(C(=C1)C2=CC=C(C=C2)C3=CSC4=C3C(=C(C(=O)N4)C#N)O)O + N=C(N)NC(=N)NCCc1ccccc1 [Phenformin] (partner 250 µM)
Method in brief: as §1

TGX 221 + Bortezomib = compound: CC1=CN2C(=O)C=C(N=C2C(=C1)C(C)NC3=CC=CC=C3)N4CCOCC4 [TGX 221] + CC(C)C[C@H](NC(=O)[C@H](Cc1ccccc1)NC(=O)c1cnccn1)B(O)O [Bortezomib] (partner 0.002 µM)
Method in brief: as §1

[3] = compound: O=C(CCCCCCNC(=O)c1cnc(N(c2ccccc2)c2ccccc2)nc1)NO [Ricolinostat] + CC(C)C[C@H](NC(=O)[C@H](Cc1ccccc1)NC(=O)c1cnccn1)B(O)O [Bortezomib] (partner 0.002 µM)
Method in brief: as §1

Cell Line	relative viability ([1]; first compound 0.08 µM)	relative viability ([1]; first compound 0.253 µM)	relative viability ([1]; first compound 0.8 µM)	relative viability ([1]; first compound 2.53 µM)	relative viability ([1]; first compound 8 µM)	relative viability ([2]; first compound 0.08 µM)	relative viability ([2]; first compound 0.253 µM)	relative viability ([2]; first compound 0.8 µM)	relative viability ([2]; first compound 2.53 µM)	relative viability ([2]; first compound 8 µM)	relative viability (TGX 221 + Bortezomib; first compound 0.08 µM)	relative viability (TGX 221 + Bortezomib; first compound 0.253 µM)	relative viability (TGX 221 + Bortezomib; first compound 0.8 µM)	relative viability (TGX 221 + Bortezomib; first compound 2.53 µM)	relative viability (TGX 221 + Bortezomib; first compound 8 µM)	relative viability ([3]; first compound 0.08 µM)	relative viability ([3]; first compound 0.253 µM)	relative viability ([3]; first compound 0.8 µM)	relative viability ([3]; first compound 2.53 µM)
NCI-H838	0.379	0.394	0.388	0.342	0.354	0.316	0.641	0.538	0.54	0.543	0.751	0.853	0.713	0.712	0.544	0.767	0.973	0.943	0.756
NCI-H727	0.474	0.671	0.668	0.519	0.52	0.484	0.668	0.416	0.491	0.514	0.827	0.829	1.03	0.737	0.893	0.554	1.1	0.811	0.911
UMC-11	0.429	0.641	0.503	0.446	0.437	0.309	0.404	0.344	0.291	0.27	0.873	0.772	0.823	0.745	0.796	0.571	0.795	0.678	0.372
CAL-12T	0.589	1.14	0.591	0.59	0.431	0.566	0.668	0.593	0.575	0.547		0.952	0.918		1.05	0.814	0.833	0.816	0.937
NCI-H1755	0.762	0.848	0.616	0.686	0.751	0.693	0.647	0.606	0.617	0.6	1.03	0.855	0.97	0.887	0.886	0.929		0.978	0.926
NCI-H1651	0.66	0.76	0.715	0.576	0.448	0.272	0.336	0.398	0.365	0.278		0.96	0.919	0.868	0.858	0.941	0.865	0.918	0.984
NCI-H1915	0.645	0.622		0.657	0.534	0.342	0.32		0.376	0.325	0.897	0.963	1.04	0.914	1.02	0.932	1.01	0.903	0.98
EPLC-272H	0.253	0.286	0.263	0.27	0.289	0.219	0.254	0.398	0.327	0.248	0.966	0.879	0.893		1		0.751	0.848	0.871
NCI-H2087	0.551	0.772	0.568	0.57	0.358	0.441	0.481	0.464	0.366	0.362	0.832	0.759	0.916	0.956	1.06	0.895	0.54	0.806	0.456
A-427	0.363	0.505	0.514	0.432	0.452	0.234	0.313	0.315	0.328	0.31	0.954	0.99	0.965	0.942	0.993	0.89	0.998	0.933	0.736
NCI-H460	0.36	0.755	0.377	0.868	0.462	0.165	0.557	0.427	0.561	0.107	0.724	0.922	1.02	1.11	1	0.895	1.01	1.11	1
NCI-H23	0.69	0.523	0.596	0.575	0.537	0.782	0.85	0.872	0.754	0.583	0.861	1.21	1.11	1.03	0.963	0.793	1.14	1.16	0.993
NCI-H1437	0.869	1.05	0.868	0.873	0.703	0.297	0.452	0.237	0.303	0.26	0.535	0.53	0.522	0.414	0.486	0.561	0.513	0.479	0.256
EKVX	0.777	0.775	0.71	0.724	0.509	0.226	0.259	0.233	0.221	0.216	1.02	1.11	0.939	0.985	0.986		1.03	1.16	0.83
NCI-H1650	0.477	0.784	0.738	0.508	0.43	0.406	0.358	0.437	0.439	0.362	0.2	0.22	0.213	0.198	0.201	0.184	0.195	0.193	0.205
HARA	0.386	0.661	0.524	0.428	0.297	0.323	0.542	0.433	0.431	0.425	1.13	1.07	1.05	1.09	1.2	1.05	1.02	1.1	0.638
ChaGo-K-1	0.475	0.569	0.485	0.571	0.528	0.448	0.523	0.519	0.483	0.407	0.866	1.02	1.02	0.984	1.16	1	1.18	0.959	0.9
HCC-366	1.32	1.18	0.875	0.945	0.719	0.632	0.623	0.584	0.646	0.591	0.863	1.03	1.12	0.99	1.09	0.906	1.11	0.904	0.639

Cell Line	relative viability ([1]; first compound 0.08 µM)	relative viability ([1]; first compound 0.253 µM)	relative viability ([1]; first compound 0.8 µM)	relative viability ([1]; first compound 2.53 µM)	relative viability ([1]; first compound 8 µM)	relative viability ([2]; first compound 0.08 µM)	relative viability ([2]; first compound 0.253 µM)	relative viability ([2]; first compound 0.8 µM)	relative viability ([2]; first compound 2.53 µM)	relative viability ([2]; first compound 8 µM)	relative viability (TGX 221 + Bortezomib; first compound 0.08 µM)	relative viability (TGX 221 + Bortezomib; first compound 0.253 µM)	relative viability (TGX 221 + Bortezomib; first compound 0.8 µM)	relative viability (TGX 221 + Bortezomib; first compound 2.53 µM)	relative viability (TGX 221 + Bortezomib; first compound 8 µM)	relative viability ([3]; first compound 0.08 µM)	relative viability ([3]; first compound 0.253 µM)	relative viability ([3]; first compound 0.8 µM)	relative viability ([3]; first compound 2.53 µM)
SW 1573	0.618	0.821	0.657	0.54	0.391	0.343	0.351	0.343	0.333	0.233	0.91	1.09	1.04	0.945	0.839	0.834	1.13	1.06	1.13
HCC-827	0.691	0.862	0.699	0.881	0.739	0.396	0.377	0.424	0.387	0.394	0.981	1.06	1.07	1.17	1.07	1.01	0.981	0.995	1.03
EMC-BAC-2	0.41	0.411	0.312	0.355	0.357	0.38	0.563	0.492	0.533	0.43	1.02	1.02	1.08	1.03	1.07	0.957	1.12	1.06	0.941
NCI-H2023	0.32	0.441	0.404	0.382	0.317	0.342	0.351	0.429	0.466	0.37	0.947	0.864	1.06	0.861	0.857	0.822	1.09	0.88	0.839
NCI-H1993	0.442	0.539	0.543	0.595	0.595	0.49	0.424	0.55	0.473	0.529	0.932	0.838	0.963	0.785	0.892	0.861	1	1.25	1.15
COR-L 105	0.72	0.737	0.734	0.628	0.602	0.47	0.649	0.348	0.401	0.402	0.832	0.816	1.01	0.698	0.736	0.844	0.885	0.946	0.993
NCI-H596	0.55	0.722	0.692	0.732	0.553	0.629	0.695	0.741	0.724	0.571	1.17	1.21	0.938	0.871	0.948	0.896	1.09	1.13	
NCI-H650	0.474	0.469	0.501	0.587	0.58	0.474	0.531	0.448	0.465	0.44	0.697	0.748	0.721	0.639	0.791		0.788	0.544	0.23
NCI-H520	0.174	0.192	0.237	0.304	0.233	0.254	0.535	0.757	0.542	0.467	0.345	0.457	0.56	0.263	0.309		0.609	0.414	0.103
ABC-1	0.37	0.477	0.478	0.424	0.257	0.241	0.274	0.241	0.259	0.239	0.325	0.243	0.348	0.315	0.29	0.311	0.302	0.25	0.264
NCI-H322M	0.59	0.489	0.502	0.576	0.514	0.69	0.751	0.776	0.871	0.865	1.15	1.09	1.15	1.18	1.11		1.14	1.29	1.22
HCC-78	0.42	0.405	0.397	0.381	0.326	0.608	0.872	0.64	0.609	0.568	0.435	0.38	0.429	0.24	0.335		0.475	0.455	0.686
NCI-H1563	0.672	0.746	0.7	0.774	0.745	0.63	0.714	0.702	0.622	0.679	0.925	0.783	0.795	0.719	0.687	0.754	0.758	0.837	0.787
NCI-H2228	0.6	0.785	0.576	0.491	0.372	0.316	0.318	0.322	0.307	0.225	1.02	0.787	1.21	0.77	0.751	0.789	0.807	0.907	0.594
NCI-H2009	0.624	0.63	0.555	0.612	0.509	0.443	0.505	0.457	0.496	0.387	0.995	1.02	1.02	0.948	0.769	0.834	0.979	0.93	0.763
LXF-289	0.666	0.801	0.778	0.865	0.732	0.491	0.538	0.553	0.507	0.485	1.02	0.979	0.915	0.974	1.06	0.951	0.931	0.993	0.874
NCI-H1975	0.535	0.823	0.689	0.709	0.676	0.379	0.425	0.403	0.393	0.394	0.459	0.351	0.384	0.39	0.305	0.406	0.357		0.233
